In patent publication US20030032674A1, “Use of unsaturated fatty acids to treat severe inflammatory diseases” (priority 2001, published 2003):

Tests used:
[1] = test system: iNOS expression; test: iNOS immunoblot in RAW 264.7 cells; type: cell-based, murine; conditions: lauric acid 1, 10, 50, 100 μM with BSA, 11 h
Protocol: Cell culture—RAW 264.7 cells (a murine macrophage-like cell line, ATCC TIB-71), 293T cells (a human embryonic kidney cell line, provided by Sam Lee, Beth Israel Hospital. Boston, Mass.), and HT-29 cells (a human colon adenocarcinoma cell line, ATCC HTB-38) were cultured in Dulbecco's modified Eagle's medium (DMEM) containing 10% (v/v) heat-inactivated fetal bovine serum (FBS, Intergen) and 100 units/ml Penicillin and […] Streptomycin (GIBCO-BRL) at 37° C. in a 5% CO2/air environment. Cells (2×10^6) were plated in 60-mm dishes and cultured for an additional 18 hours to allow the number of cells to approximately double. Cells were maintained in serum-poor (0.25% FBS) medium for another 18 hours prior to the treatment with indicated reagents.
Preparation of fatty acids-albumin complexes—All fatty acids were solubilized in ethanol, and then combined with fatty acid-free and low-endotoxin BSA at a molar ratio of 10:1 (fatty acid: albumin) in serum-poor medium (0.25% FBS). […]
After 11 h, cell lysates were analyzed by COX-2, iNOS, IL-1α, or GAPDH immunoblot using a Western blot analysis.
RAW 264.7 cells were pretested with various concentrations (5, 10, 20, and 50 μM) of docosahexaenoic acid (C22:6n-3) for 3 hours, and then stimulated with LPS (100 ng/ml) for 8 hours and analyzed by COX-2, iNOS, IL-1 a or GAPDH immunoblot.

[2] = test system: constitutively active human TLR4 (CD4-TLR4); test: NFκB reporter in 293T cells transfected with constitutively active TLR4; type: cell-based
Excerpt: Plasmids and DNA Constructs—All plasmids and constructs were obtained or made as reported in either S. H. Rhee and D. Hwang, “Murine TOLL-like receptor 4 confers lipopolysaccaride responsiveness as determined by activation of NFκB and expression of the inducible cyclooxygenase,” Journal of Biological Chemistry, vol. 275, pp. 34035-34040 (2000); and J. Y. Lee et al., “Saturated fatty acids, but not unsaturated fatty acids, induce the expression of cyclooxygenase-2 mediated through TOLL-like receptor 4,” Journal of Biological Chemistry, vol. 276, pp. 16683-16689 (2001). Briefly, the luciferase reporter plasmids (pGL2) containing the promoter region of the murine COX-2 gene (−3201/+93 or −1017/+93) were provided by David Dewitt (Michigan State University, East Lansing, Mich.). To prepare the wild-type COX-2 promoter fragment, polymerase chain reaction (PCR) was performed with the primers named Kpn-COX2-For and Hind-COX2-Rev using the murine COX-2 (−1017/+93) luciferase reporter plasmid as a template. To prepare the mutant COX-2 promoter fragment containing mutated NFκB site, Kpn-COX2-Fmut and Hind-COX2-Rev were used as primers. Each PCR fragment was inserted into the KpnI and HindIII sites of pGL2 to generate the wild-type or mutant COX-2 (−410/+86) luciferase reporter constructs, respectively. Sequences for wild-type NFκB site and the primers were used as reported elsewhere. […]

CCCCCCCCCCCC(=O)O [lauric acid]
iNOS expression induced by fatty acid (immunoblot) [1]: induced
effect on CD4-TLR4-induced NFκB activation [2]: potentiated
